# Reference: PMC9245008 (ACS chemical biology, 2022)
# pIC50: −log10 of the molar value.
# Key:
# CIA mouse model = conditions: 50 mg/kg IP; cited from earlier work
# IRAK4 [1] = target: T1, IRAK4 (Homo sapiens, UniProt Q9NWZ3); test: Potency of takinib analogues against IRAK4; assay type: biochemical; conditions: IRAK4 IC50 over TAK1 IC50
# T1 sequence (Q9NWZ3 1-460): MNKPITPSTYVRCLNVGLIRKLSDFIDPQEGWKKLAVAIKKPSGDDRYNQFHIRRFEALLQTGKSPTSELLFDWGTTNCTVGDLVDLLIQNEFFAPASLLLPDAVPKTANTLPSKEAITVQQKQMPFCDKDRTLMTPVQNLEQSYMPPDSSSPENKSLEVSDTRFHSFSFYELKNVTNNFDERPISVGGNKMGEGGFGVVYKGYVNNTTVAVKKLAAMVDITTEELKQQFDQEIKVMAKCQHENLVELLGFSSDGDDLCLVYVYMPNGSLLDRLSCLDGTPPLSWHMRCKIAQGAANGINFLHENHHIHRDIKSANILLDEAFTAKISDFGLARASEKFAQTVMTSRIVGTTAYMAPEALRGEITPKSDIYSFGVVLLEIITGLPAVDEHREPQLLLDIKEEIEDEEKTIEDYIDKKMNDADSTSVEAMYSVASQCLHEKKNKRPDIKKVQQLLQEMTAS
# IRAK4 [2] = target: T1, IRAK4; conditions: cited from earlier work
# TAK1 = target: T2, TAK1 (Homo sapiens, UniProt O43318); test: Potency of takinib analogues against TAK1; assay type: biochemical
# T2 sequence (O43318 1-303 limits assumed): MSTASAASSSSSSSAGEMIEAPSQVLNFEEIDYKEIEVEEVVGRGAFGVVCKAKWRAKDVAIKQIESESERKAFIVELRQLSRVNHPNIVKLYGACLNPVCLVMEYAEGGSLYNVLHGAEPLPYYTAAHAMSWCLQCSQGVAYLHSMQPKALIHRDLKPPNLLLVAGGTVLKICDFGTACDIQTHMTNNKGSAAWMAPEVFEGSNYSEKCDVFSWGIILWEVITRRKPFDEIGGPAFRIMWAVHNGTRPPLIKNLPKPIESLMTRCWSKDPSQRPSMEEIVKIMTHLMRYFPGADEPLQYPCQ
compound,measurement,setting,value
"CCCn1c(=NC(=O)c2cccc(C(N)=O)c2)[nH]c2ccccc21 [Takinib, N-(1-propyl-1,3-dihydro-2H-benzo[d]imidazol-2-ylidene)isophthalamide]",reduction of mean clinical score,CIA mouse model,~ 32%
same,Ratio,IRAK4 [1],13
same,IRAK4 less potently inhibited than TAK1,IRAK4 [2],13 fold
same,pIC50,"IRAK4 [2]; read-out: IRAK4 IC50, two independent kinome wide screens",~6.92
same,pIC50,TAK1,8.05
